Measurements taken from PubChem BioAssay (NCI).
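Growth conditions: 96-well plates. Treatment: test compound, 48 hours, 5 concentrations. Analysis: linear interpolation between bracketing concentrations; unreached endpoints set to highest concentration. Definition used: TGI = concentration required for complete inhibition of growth.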

Key:
Test in all cases: NCI-60 cell line screen, 48 h
[1] = system: SK-MEL-2 melanoma
[2] = system: KM12 colon
[3] = system: IGROV1 ovarian
[4] = system: A549 NSCLC
[5] = system: SW-620 colon
[6] = system: UO-31 renal
[7] = system: UACC-62 melanoma
[8] = system: MDA-MB-435
[9] = system: ACHN renal
[10] = system: SK-MEL-28 melanoma
[11] = system: NCI/ADR-RES ovarian
[12] = system: SN12C renal
[13] = system: NCI-H226 lung
[14] = system: SK-OV-3 ovarian
[15] = system: OVCAR-3 ovarian
[16] = system: HT29 colon
[17] = system: LOX IMVI melanoma
[18] = system: HCT-15 colon
[19] = system: RPMI-8226 leukemia
[20] = system: HCC-2998 colon
[21] = system: RXF 393 renal
[22] = system: SNB-19 CNS
[23] = system: HCT-116 colon
[24] = system: DU-145 prostate
[25] = system: NCI-H460 lung
[26] = system: OVCAR-4 ovarian
[27] = system: HS 578T breast
[28] = system: PC-3 prostate
[29] = system: CCRF-CEM leukemia
[30] = system: HOP-62 NSCLC
[31] = system: MCF7 breast
[32] = system: EKVX NSCLC
[33] = system: T-47D breast
[34] = system: HL-60(TB) leukemia
[35] = system: SF-539 CNS
[36] = system: K-562 leukemia
[37] = system: M14 melanoma
[38] = system: MDA-MB-231 breast
[39] = system: CAKI-1 renal
[40] = system: SK-MEL-5 melanoma
[41] = system: UACC-257 melanoma
[42] = system: OVCAR-5 ovarian
[43] = system: 786-0 renal
[44] = system: U251 CNS
[45] = system: SF-295 CNS
[46] = system: MOLT-4 leukemia
[47] = system: MDA-N
[48] = system: HOP-92 NSCLC
[49] = system: MALME-3M melanoma
[50] = system: BT-549 breast
[51] = system: A498 renal
[52] = system: SR leukemia
[53] = system: NCI-H23 lung
[54] = system: OVCAR-8 ovarian
[55] = system: COLO 205 colon
[56] = system: NCI-H522 lung
[57] = system: SF-268 CNS
[58] = system: TK-10 renal
[59] = system: SNB-75 CNS

O=C1CC(NC(=O)C(F)(F)F)c2c1csc2Br (stereo not given) showed a TGI [1] greater than 100 µM, a TGI [2] greater than 100 µM and a TGI [3] greater than 100 µM. It also gave a TGI [4] greater than 100 µM, a TGI [5] greater than 100 µM and a TGI [6] greater than 100 µM. It also gave a TGI [7] greater than 100 µM, a TGI [8] greater than 100 µM and a TGI [9] greater than 100 µM. For the same molecule, the TGI [10] was greater than 100 µM, the TGI [11] was greater than 100 µM and the TGI [12] was greater than 100 µM. For the same molecule, the TGI [13] was greater than 100 µM, the TGI [14] was greater than 100 µM and the TGI [15] was greater than 100 µM. The TGI [16] was greater than 100 µM, the TGI [17] was greater than 100 µM and the TGI [18] was greater than 100 µM. It also gave a TGI [19] greater than 100 µM, a TGI [20] greater than 100 µM and a TGI [21] of 47.9 µM. The TGI [22] was greater than 100 µM, the TGI [23] was greater than 100 µM and the TGI [24] was greater than 100 µM. The TGI [25] was greater than 100 µM, the TGI [26] was greater than 100 µM and the TGI [27] was greater than 100 µM. The TGI [28] was greater than 100 µM, the TGI [29] was greater than 100 µM and the TGI [30] was greater than 100 µM. The TGI [31] was 9.85 µM, the TGI [32] was 38.2 µM and the TGI [33] was greater than 100 µM. The TGI [34] was greater than 100 µM, the TGI [35] was greater than 100 µM and the TGI [36] was greater than 100 µM. For the same molecule, the TGI [37] was greater than 100 µM, the TGI [38] was greater than 100 µM and the TGI [39] was 30.5 µM. It also gave a TGI [40] greater than 100 µM, a TGI [41] greater than 100 µM and a TGI [42] of 6.03 µM. The TGI [43] was 83.1 µM, the TGI [44] was greater than 100 µM and the TGI [45] was greater than 100 µM. For the same molecule, the TGI [46] was greater than 100 µM, the TGI [47] was greater than 100 µM and the TGI [48] was greater than 100 µM. The TGI [49] was greater than 100 µM, the TGI [50] was greater than 100 µM and the TGI [51] was greater than 100 µM. The TGI [52] was greater than 100 µM, the TGI [53] was greater than 100 µM and the TGI [54] was greater than 100 µM. The TGI [55] was greater than 100 µM, the TGI [56] was greater than 100 µM and the TGI [57] was 62.3 µM. For the same molecule, the TGI [58] was greater than 100 µM.

Cc1ccc2c(c1)C(=O)/C(=N/Nc1ccc(Cl)cc1)CCO2 was tested, and the TGI [1] was 54.6 µM, the TGI [2] was greater than 100 µM and the TGI [3] was greater than 100 µM. The TGI [4] was greater than 100 µM, the TGI [5] was greater than 100 µM and the TGI [6] was greater than 100 µM. The TGI [7] was greater than 100 µM, the TGI [8] was greater than 100 µM and the TGI [9] was greater than 100 µM. It also gave a TGI [10] greater than 100 µM, a TGI [11] greater than 100 µM and a TGI [12] greater than 100 µM. The TGI [13] was greater than 100 µM, the TGI [14] was greater than 100 µM and the TGI [15] was greater than 100 µM. For the same molecule, the TGI [16] was greater than 100 µM, the TGI [17] was greater than 100 µM and the TGI [18] was greater than 100 µM. For the same molecule, the TGI [19] was greater than 100 µM, the TGI [59] was greater than 100 µM and the TGI [20] was greater than 100 µM. For the same molecule, the TGI [22] was greater than 100 µM, the TGI [23] was greater than 100 µM and the TGI [24] was greater than 100 µM. It also gave a TGI [25] greater than 100 µM, a TGI [26] greater than 100 µM and a TGI [27] greater than 100 µM. It also gave a TGI [28] greater than 100 µM, a TGI [29] greater than 100 µM and a TGI [30] greater than 100 µM. It also gave a TGI [31] greater than 100 µM, a TGI [32] greater than 100 µM and a TGI [33] greater than 100 µM. For the same molecule, the TGI [34] was greater than 100 µM, the TGI [35] was greater than 100 µM and the TGI [36] was greater than 100 µM. It also gave a TGI [37] greater than 100 µM, a TGI [38] greater than 100 µM and a TGI [39] greater than 100 µM. For the same molecule, the TGI [40] was greater than 100 µM, the TGI [41] was greater than 100 µM and the TGI [42] was greater than 100 µM. For the same molecule, the TGI [43] was greater than 100 µM, the TGI [44] was greater than 100 µM and the TGI [45] was greater than 100 µM. It also gave a TGI [46] greater than 100 µM, a TGI [47] greater than 100 µM and a TGI [48] greater than 100 µM. For the same molecule, the TGI [49] was greater than 100 µM, the TGI [50] was greater than 100 µM and the TGI [51] was greater than 100 µM. It also gave a TGI [52] greater than 100 µM, a TGI [53] greater than 100 µM and a TGI [54] greater than 100 µM. The TGI [55] was greater than 100 µM, the TGI [56] was greater than 100 µM and the TGI [57] was greater than 100 µM. The TGI [58] was greater than 100 µM.

Cc1csc2nc3c(cnn3C)c(=S)n12 showed a TGI [1] greater than 100 µM, a TGI [2] greater than 100 µM and a TGI [3] greater than 100 µM. For the same molecule, the TGI [4] was greater than 100 µM, the TGI [5] was greater than 100 µM and the TGI [6] was greater than 100 µM. It also gave a TGI [7] greater than 100 µM, a TGI [8] greater than 100 µM and a TGI [9] greater than 100 µM. For the same molecule, the TGI [10] was greater than 100 µM, the TGI [11] was greater than 100 µM and the TGI [12] was greater than 100 µM. For the same molecule, the TGI [14] was greater than 100 µM, the TGI [15] was greater than 100 µM and the TGI [16] was greater than 100 µM. The TGI [17] was greater than 100 µM, the TGI [18] was greater than 100 µM and the TGI [19] was greater than 100 µM. The TGI [59] was greater than 100 µM, the TGI [20] was greater than 100 µM and the TGI [21] was greater than 100 µM. The TGI [22] was greater than 100 µM, the TGI [23] was greater than 100 µM and the TGI [25] was greater than 100 µM. For the same molecule, the TGI [26] was greater than 100 µM, the TGI [27] was greater than 100 µM and the TGI [28] was greater than 100 µM. For the same molecule, the TGI [29] was greater than 100 µM, the TGI [30] was greater than 100 µM and the TGI [31] was greater than 100 µM. It also gave a TGI [32] greater than 100 µM, a TGI [33] greater than 10 µM and a TGI [35] greater than 100 µM. The TGI [36] was greater than 100 µM, the TGI [37] was greater than 100 µM and the TGI [38] was greater than 10 µM. For the same molecule, the TGI [39] was greater than 100 µM, the TGI [40] was greater than 100 µM and the TGI [41] was greater than 100 µM. For the same molecule, the TGI [42] was greater than 100 µM, the TGI [43] was greater than 100 µM and the TGI [44] was greater than 100 µM. For the same molecule, the TGI [45] was greater than 100 µM, the TGI [46] was greater than 100 µM and the TGI [47] was greater than 100 µM. It also gave a TGI [49] greater than 100 µM, a TGI [50] greater than 100 µM and a TGI [52] greater than 100 µM. It also gave a TGI [53] greater than 100 µM, a TGI [54] greater than 100 µM and a TGI [55] greater than 10 µM. For the same molecule, the TGI [56] was 41.9 µM, the TGI [57] was greater than 100 µM and the TGI [58] was greater than 100 µM.

For c1ccc2c(C3CCN(CCN4CCOCC4)C3)c[nH]c2c1 (stereo not given), the TGI [1] was greater than 100 µM, the TGI [2] was greater than 100 µM and the TGI [3] was greater than 100 µM. It also gave a TGI [4] greater than 100 µM, a TGI [5] greater than 100 µM and a TGI [6] greater than 100 µM. For the same molecule, the TGI [7] was greater than 100 µM, the TGI [8] was greater than 100 µM and the TGI [9] was greater than 100 µM. The TGI [10] was greater than 100 µM, the TGI [11] was greater than 100 µM and the TGI [12] was greater than 100 µM. It also gave a TGI [14] greater than 100 µM, a TGI [15] greater than 100 µM and a TGI [16] greater than 100 µM. The TGI [17] was greater than 100 µM, the TGI [18] was greater than 100 µM and the TGI [19] was greater than 100 µM. The TGI [59] was greater than 100 µM, the TGI [20] was greater than 100 µM and the TGI [21] was greater than 100 µM. For the same molecule, the TGI [22] was greater than 100 µM, the TGI [23] was greater than 100 µM and the TGI [24] was greater than 100 µM. It also gave a TGI [25] greater than 100 µM, a TGI [26] greater than 100 µM and a TGI [27] greater than 100 µM. For the same molecule, the TGI [28] was greater than 100 µM, the TGI [29] was greater than 100 µM and the TGI [30] was greater than 100 µM. It also gave a TGI [31] greater than 100 µM, a TGI [32] greater than 100 µM and a TGI [33] greater than 100 µM. The TGI [34] was greater than 100 µM, the TGI [36] was greater than 100 µM and the TGI [37] was greater than 100 µM. The TGI [38] was greater than 100 µM, the TGI [39] was greater than 100 µM and the TGI [40] was greater than 100 µM. The TGI [41] was greater than 100 µM, the TGI [42] was greater than 100 µM and the TGI [43] was greater than 100 µM. The TGI [44] was greater than 100 µM, the TGI [45] was greater than 100 µM and the TGI [47] was greater than 100 µM. For the same molecule, the TGI [48] was greater than 100 µM, the TGI [49] was greater than 100 µM and the TGI [50] was greater than 100 µM. It also gave a TGI [51] greater than 100 µM, a TGI [52] greater than 100 µM and a TGI [53] greater than 100 µM. For the same molecule, the TGI [54] was greater than 100 µM, the TGI [56] was greater than 100 µM and the TGI [57] was greater than 100 µM. It also gave a TGI [58] greater than 100 µM.
